Each structure is given as a SMILES string.

Data set [1] deals with Verticillium albo-atrum. Put plainly: Inhibition of phytopathogenic fungi growth, laboratory test on potato-dextrose agar. Type of data set: cell-based. To be noted: active principle 0.01 % by mass in potato-dextrose agar. Here is the method:
(§1) A fungicidal composition based on this compound was prepared in the form of a 0.01% solution thereof in distilled water. A fungicidal action of the composition, according to the invention, was tested for inhibition of vegetative fungi growth such as Fusarium moniliforme, Ventura inaequalis, Rhyzoctonia ciolaceae, Botrytis cinereae, Verticillium albo-atrum, Diplodia zeae, Fusarium oxysporum, Rhoma betae, Rhyzoctonia aderholdii, Aspergillus niger, Alternaria sobani, Botrytis allii, Aspergillus fumigatis, Fusarium culmorum, Penicillium cyclopium affecting potato, sugar beet, cotton seeds either in laboratory or field conditions. For testing it to the Petri dishes containing potato-dextrose agar the composition of the invention was.added at the concentration of an active principle of 0.01 % by mass. The Petri dishes containing the same agar culture were inoculated with a mycelium of phytopathogenic fungi. For control dishes the phytopathogenic fungi were inoculated on agar without using the composition of the invention. A fungicidal effect of the composition, according to the invention was tested in comparison with the known fungicidal compositions based on 2,3-dichloro-1,4-naphthoquinone, zinc N,N'-ethylene-bis-dithiocarbamate and tetramethylthiuram disulphide.

For data set [2], the system named is Botrytis cinereae. The data set is described as above. Type of data set: cell-based. To be noted: active principle 0.01 % by mass in potato-dextrose agar. Here is the method:
as §1

The subject of data set [3] is Fusarium moniliforme. The data set is described as above. To be noted: active principle 0.01 % by mass in potato-dextrose agar. Type of data set: cell-based. Here is the method: as §1
In data set [4] the test system is Rhyzoctonia violaceae. The data set is described as above. Type of data set: cell-based. To be noted: active principle 0.01 % by mass in potato-dextrose agar. Here is the method: as §1
Data set [5] concerns Venturia inaequalis. Described as above. Type of data set: cell-based. To be noted: active principle 0.01 % by mass in potato-dextrose agar. Here is the method:
as §1

For data set [6], the system named is Verticillium albo-atrum. As to the kind of experiment: Inhibition of phytopathogenic fungi, field test on affected potato plants. Type of data set: in vivo. To be noted: 5 m^2 plots of affected potato plants sprayed. The source says:
(§2) For field tests the plots of 5 m^2 in size with potato plants affected by Fusarium moniliforme, Venturia inaequalis, Rhyzoctonia violaceae, Botrytis cinereae, Verticillium albo-atrum, Diplodia zeae, Fusarium oxysporum, Rhoma betae, Rhyzoctonia aderholdii, Aspergillus niger, Alternaria sobani, Botrytis allii, Aspergillus fumigatis, Fusarium culmorum, Penicillium cyclopium were sprayed with the fungicide of the invention. To compare, the similar plots of the affected potato plants were aprayed with the known compositions indicated above.

The subject of data set [7] is Botrytis cinereae. Described as above. Type of data set: in vivo. The note with it: 5 m^2 plots of affected potato plants sprayed.
From the text: as §2

In data set [8] the test system is Fusarium moniliforme. The description is as above. Type of data set: in vivo. To be noted: 5 m^2 plots of affected potato plants sprayed.
From the text: as §2

The test system of data set [9] is Rhyzoctonia violaceae. Described as above. Type of data set: in vivo. To be noted: 5 m^2 plots of affected potato plants sprayed.
From the text: as §2

The subject of data set [10] is Venturia inaequalis. The data set is described as above. Type of data set: in vivo. To be noted: 5 m^2 plots of affected potato plants sprayed.
From the text: as §2

The test system of data set [11] is domestic flies. Put plainly: Insecticidal activity on flies, large-scale test in living and production premises. Type of data set: in vivo. The note with it: 0.1% aqueous solution with 5% glucose, 2-3 dishes per 20 m^2, living and production premises; 72 hours. Here is the method: (§3) Based on the compound there was prepared an insecticidal composition in the form of a 0.1% solution thereof in a 5% aqueous glucose solution. The activity of the insecticidal composition, according to the invention was tested on domestic flies. To this end, into the gauze-made boxes of 10x10 cm in size (6 boxes) 6-7-day flies of both sexes were placed at the rate of 50 individuals per each box. Into 5 boxes there were placed Petri dishes with a 5% aqueous glycose solutiono An insecticidal activity of the composition, according to the invention, was tested in com- parison with an insecticidal composition based on 0,0-dimethyl(1-hydroxy-2,2,2-trichloroethyl)phosphonate. The tests were also conducted in living and production premises. For this, Petri dishes containing a 0.1% aqueous solution of the insecticide of the invention, to which a 5% glucose solution was added, were put at a rate of 2-3 dishes per 20 m^2. The activity of the composition, according to the invention, was evaluated by a direct count of dead insects in 72 hours or by using the adhesive tapes and counting the number of flies on the tape prior and after the test.

Another data set in a line: Solubility (qualitative). To be noted: water, alcohols, acetone.
Data set [12] concerns domestic flies. As to the kind of experiment: Insecticidal activity on domestic flies, laboratory test (gauze boxes). Type of data set: in vivo. To be noted: 0.1% solution in 5% aqueous glucose solution; 50 flies per box; count in 72 hours. Here is the method: as §3
For data set [13], the system named is Aspergillus fumigatis. Put plainly: Inhibition of phytopathogenic fungi growth, laboratory test on potato-dextrose agar. The note with it: active principle 0.01 % by mass in potato-dextrose agar. Type of data set: cell-based. Here is the method: as §1
Data set [14] relates to Penicillium cyclopium. The description is as above. To be noted: active principle 0.01 % by mass in potato-dextrose agar. Type of data set: cell-based. Here is the method: as §1
Data set [15] has as its system Rhoma betae. The data set is described as above. Type of data set: cell-based. To be noted: active principle 0.01 % by mass in potato-dextrose agar. Here is the method:
as §1

For data set [16], the system named is Fusarium culmorum. The data set is described as above. Type of data set: cell-based. The note with it: active principle 0.01 % by mass in potato-dextrose agar. Here is the method: as §1
Data set [17] relates to Aspergillus niger. Described as above. Type of data set: cell-based. To be noted: active principle 0.01 % by mass in potato-dextrose agar. Here is the method:
as §1

Data set [18] has as its system Rhyzoctonia aderholdii. The data set is described as above. Type of data set: cell-based. The note with it: active principle 0.01 % by mass in potato-dextrose agar. Here is the method: as §1
The subject of data set [19] is Aspergillus fumigatis. Put plainly: Inhibition of phytopathogenic fungi, field test on affected potato plants. To be noted: 5 m^2 plots of affected potato plants sprayed. Type of data set: in vivo.
From the text: as §2

Data set [20] relates to Penicillium cyclopium. Described as above. Type of data set: in vivo. The note with it: 5 m^2 plots of affected potato plants sprayed.
From the text: as §2

Data set [21] deals with Rhoma betae. The data set is described as above. To be noted: 5 m^2 plots of affected potato plants sprayed. Type of data set: in vivo.
From the text: as §2

Data set [22] deals with Fusarium culmorum. The data set is described as above. Type of data set: in vivo. The note with it: 5 m^2 plots of affected potato plants sprayed.
From the text: as §2

Data set [23] deals with Aspergillus niger. The data set is described as above. Type of data set: in vivo. The note with it: 5 m^2 plots of affected potato plants sprayed.
From the text: as §2

Data set [24] relates to Rhyzoctonia aderholdii. The data set is described as above. Type of data set: in vivo. To be noted: 5 m^2 plots of affected potato plants sprayed.
From the text: as §2

Turning to `O=C1C(Cl)=C(Cl)C(=O)c2ccccc21` [2,3-dichloro--1,4-naphtho-quinone, 2,3-dichloro-1,4-naphthoquinone, reference compound], in the data set with Verticillium albo-atrum [1], the “Inhibition of growth of phytopathogenic fungi colonies, % Verticillium albo--atrum test laboratory” value came to 53%. In the data set on Botrytis cinereae [2], the “Inhibition of growth of phytopathogenic fungi colonies, % Botrytis cinereae test laboratory” value is 38%. For the same compound, the “Inhibition of growth of phytopathogenic fungi colonies, % Fusatium monili-forme test laboratory” value in the data set on Fusarium moniliforme [3] worked out at 55%. Moreover, the “Inhibition of growth of phytopathogenic fungi colonies, % Rhyzoctonia violaceae test laboratory” value in the data set on Rhyzoctonia violaceae [4] was 34%. For the same compound, the “Inhibition of growth of phytopathogenic fungi colonies, % Venturia inaequalis test laboratory” value in the data set on Venturia inaequalis [5] is reported as 40%. Further, the “Inhibition of growth of phytopathogenic fungi colonies, % Verticillium albo--atrum test field” value with Verticillium albo-atrum [6] was found to be 52%. The “Inhibition of growth of phytopathogenic fungi colonies, % Botrytis cinereae test field” value in the data set on Botrytis cinereae [7] worked out at 37%. Besides, in the data set on Fusarium moniliforme [8], the “Inhibition of growth of phytopathogenic fungi colonies, % Fusatium monili-forme test field” value came to 54%. The “Inhibition of growth of phytopathogenic fungi colonies, % Rhyzoctonia violaceae test field” value in the data set with Rhyzoctonia violaceae [9] is reported as 32%. Further, the “Inhibition of growth of phytopathogenic fungi colonies, % Venturia inaequalis test field” value in the data set on Venturia inaequalis [10] came to 39%.

Regarding `Cc1ccc(C)c(NP(=O)(NC(=O)c2ccc(Cl)cc2)Nc2cc(C)ccc2C)c1` [Example 2, di-2,5-dimethylanil-ide of para-chlorobenzoylamidophosphoric acid], the “Death of flies, % tests large-scale” value in the data set with domestic flies [11] is listed as 91%. In addition, in “Solubility (qualitative)”, the solubility entry is on record as “soluble in water, alcohols, acetone”. For the same compound, the “Death of flies, % tests laboratory” value in the data set with domestic flies [12] is given as 92%.

With `O=C(NP(=O)(Nc1cccc(Cl)c1)Nc1cccc(Cl)c1)c1ccc(Cl)cc1` [Example 3, di-meta- chloranilide pf para-chlorobenzoylamidophosphoric acid], the “Death of flies, % tests large-scale” value with domestic flies [11] is 86%. In the data set “Solubility (qualitative)”, the solubility entry is “soluble in water, alcohols, acetone”. In addition, the “Death of flies, % tests laboratory” value with domestic flies [12] is on record as 87%.

Regarding `O=C(NP(=O)(Nc1ccccc1)Nc1ccccc1)c1ccc(Br)cc1` [Example 4, para-bromobenzoilamidophosphoric acid dianilide], the “Death of flies, % tests large-scale” value in the data set with domestic flies [11] is 93%. In the data set “Solubility (qualitative)”, the solubility entry is reported as “soluble in water, alcohols, acetone”. In addition, the “Death of flies, % tests laboratory” value in the data set with domestic flies [12] is given as 94%.

For the compound `O=C(NP(=O)(Nc1ccc(Cl)cc1Cl)Nc1ccc(Cl)cc1Cl)c1ccc(Br)cc1` [Example 6, para-bromobenzoilamidophosphoric acid di-2,4-dichloranilide], the “Death of flies, % tests large-scale” value with domestic flies [11] is reported as 100%. Also, the solubility result in the data set “Solubility (qualitative)” is “soluble in water, alcohols, acetone”. The “Death of flies, % tests laboratory” value with domestic flies [12] worked out at 100%.

Take `COP(=O)(NC(=O)c1ccc(Cl)c([N+](=O)[O-])c1)OC` [Example 7, dimethyl ether of 3-mitro-4-chlorobenzoylamidiphos-phoric acid]: in the data set with domestic flies [11], the “Death of flies, % tests large-scale” value amounted to 75%. Besides, the solubility entry in the data set “Solubility (qualitative)” is “soluble in water, alcohols, acetone”. For the same compound, the “Death of flies, % tests laboratory” value in the data set on domestic flies [12] amounted to 76%.

`CN(C)C(=S)SSC(=S)N(C)C` [tetramethylthi-uram disulphide, tetramethylthiuram disulphide, reference compound]: the “Inhibition of growth of phytopathogenic fungi colonies, % Aspergillus fumigatis Tests laboratory” value in the data set on Aspergillus fumigatis [13] was 81%. For the same compound, the “Inhibition of growth of phytopathogenic fungi colonies, % Penicillium cyclopium Tests laboratory” value in the data set with Penicillium cyclopium [14] is given as 65%. The “Inhibition of growth of phytopathogenic fungi colonies, % Rhoma betae test laboratory” value in the data set on Rhoma betae [15] stood at 60%. The “Inhibition of growth of phytopathogenic fungi colonies, % Fusarium culmorum Tests laboratory” value with Fusarium culmorum [16] was 100%. Further, the “Inhibition of growth of phytopathogenic fungi colonies, % Aspergillus niger test laboratory” value in the data set with Aspergillus niger [17] is 100%. The “Inhibition of growth of phytopathogenic fungi colonies, % Rhyzoctonia aderholdii test laboratory” value in the data set on Rhyzoctonia aderholdii [18] was determined as 100%. Further, the “Inhibition of growth of phytopathogenic fungi colonies, % Aspergillus fumigatis Tests field” value in the data set on Aspergillus fumigatis [19] was found to be 80%. For the same compound, in the data set with Penicillium cyclopium [20], the “Inhibition of growth of phytopathogenic fungi colonies, % Penicillium cyclopium Tests field” value was found to be 64%. For the same compound, in the data set with Rhoma betae [21], the “Inhibition of growth of phytopathogenic fungi colonies, % Rhoma betae test field” value was found to be 59%. Moreover, in the data set with Fusarium culmorum [22], the “Inhibition of growth of phytopathogenic fungi colonies, % Fusarium culmorum Tests field” value worked out at 98%. In addition, the “Inhibition of growth of phytopathogenic fungi colonies, % Aspergillus niger test field” value in the data set with Aspergillus niger [23] worked out at 98%. The “Inhibition of growth of phytopathogenic fungi colonies, % Rhyzoctonia aderholdii test field” value in the data set with Rhyzoctonia aderholdii [24] is given as 99%.

`CCOP(=O)(NC(=O)c1ccc(Cl)c([N+](=O)[O-])c1)OCC` [Example 8, diethyl ether of 3-nitro-4-chlorobenzoylamidophosphoric acid]: in the data set on domestic flies [11], the “Death of flies, % tests large-scale” value turned out to be 97%. Also, the solubility result in “Solubility (qualitative)” is reported as “soluble in water, alcohols, acetone”. Moreover, the “Death of flies, % tests laboratory” value in the data set on domestic flies [12] came out at 98%.

`O=C(NP(=O)(Nc1ccccc1Cl)Nc1ccccc1Cl)c1ccc(Br)cc1` [Example 5, para-bromo- bensoylamidophosphoric acid di-ortho-chloranilide]: the “Death of flies, % tests large-scale” value with domestic flies [11] is 100%. The “Death of flies, % tests laboratory” value in the data set with domestic flies [12] came out at 100%.

With `O=C(CCl)NP(=O)(NCc1ccccc1)NCc1ccccc1` [Example 1, chloroacetylamidophosphoric acid dibenzylamide], in the data set on domestic flies [11], the “Death of flies, % tests large-scale” value was 93%. The solubility result in the data set “Solubility (qualitative)” was “soluble in water, alcohols acetone”. Further, the “Death of flies, % tests laboratory” value in the data set with domestic flies [12] was found to be 94%.

Source of the values: EP0407583A1, “DERIVATIVES OF DICHLOR[…] ACYLAMIDO[…] AND INSECTICIDAL, FU[…] HEMATOCIDAL PREPARATIONS BASED ON THEM” (priority 1989, dated 1990).
